The data set is described as follows: in vitro. Particulars: human, hela cells, % viability.
In general, viability refers to a read-out of living cells in per cent, often relative to untreated cells. For `CN1C(=O)CC2(C1=O)C(=O)N(Cc1ccc3ccccc3n1)c1ccc(Cl)cc12` (stereo not drawn) [CBK075494], the viability at 28.5 h, 10 µM is 102%.
In the case of `Cc1ccc2c(c1)C1(CC(=O)N(C)C1=O)C(=O)N2CCCOc1ccccc1` (stereo not drawn) [CBK075496], the viability at 28.5 h, 10 µM was 98.2%.
`COc1ccc2c(c1)C1(CC(=O)N(Cc3ccccc3)C1=O)C(=O)N2CCCN1C(=O)c2ccccc2C1=O` (stereo not drawn) [CBK075501]: the viability at 28.5 h, 10 µM is 93.4%.
The same measure for `CCN1C(=O)CC2(C1=O)C(=O)N(Cc1nc(OC)cc(OC)n1)c1ccccc12` (stereo not drawn) [CBK075510]: 75.8%; for `CCN1C(=O)CC2(C1=O)C(=O)N(CCCN(C)S(C)(=O)=O)c1ccccc12` (stereo not drawn) [CBK075519]: 101%; for `CCN1C(=O)CC2(C1=O)C(=O)N(CCc1cccs1)c1ccccc12` (stereo not drawn) [CBK075521]: 91.4%.
To `COc1ccc(OCCCN2C(=O)C3(CC(=O)N(Cc4ccccc4)C3=O)c3cc(OC)ccc32)cc1` (stereo not drawn) [CBK075523] belongs 106%; to `Cc1ccc2c(c1)C1(CC(=O)N(C)C1=O)C(=O)N2CCOc1cccc2c1OCCO2` (stereo not drawn) [CBK075529], 99.6%.
Regarding `CCN1C(=O)CC2(C1=O)C(=O)N(CCc1cccs1)c1ccc(Cl)cc12` (stereo not drawn) [CBK075614], the viability at 28.5 h, 10 µM worked out at 106%.
As for `O=C1CC2(C(=O)N1Cc1ccccc1)C(=O)N(Cc1csc(-c3ccccc3)n1)c1ccccc12` (stereo not drawn) [CBK075673], the viability at 28.5 h, 10 µM came out at 112%.
On to `C=CCN1C(=O)CC2(C1=O)C(=O)N(Cc1nc(-c3ccc(Cl)cc3)no1)c1ccc(OC)cc12` (stereo not drawn) [CBK075692], for which the viability at 28.5 h, 10 µM is 97.1%.
The same measure for `Cc1ccc(-c2nnc(CN3C(=O)C4(CC(=O)N(Cc5ccccc5)C4=O)c4ccccc43)o2)cc1` (stereo not drawn) [CBK075749]: 103%.
To `COCCN1C(=O)CC2(C1=O)C(=O)N(CC(=O)c1ccccc1)c1ccccc12` (stereo not drawn) [CBK075875] belongs 99%.
The same measure for `COCCOCN1C(=O)CC2(C1=O)C(=O)N(Cc1ccc(OC(F)(F)F)cc1)c1ccccc12` (stereo not drawn) [CBK075942]: 94.2%; for `CC(C)N1C(=O)C2(CC(=O)N(CCCN3C(=O)c4ccccc4C3=O)C2=O)c2cc(F)ccc21` (stereo not drawn) [CBK075969]: 99%.
In the case of `COc1cccc(CN2C(=O)CC3(C2=O)C(=O)N(CC(=O)c2ccccc2)c2ccccc23)c1` (stereo not drawn) [CBK075984], the viability at 28.5 h, 10 µM is 88.9%.
To `COc1cc(OC)nc(CN2C(=O)CC3(C2=O)C(=O)N(CC(=O)c2ccccc2)c2ccc(C)cc23)n1` (stereo not drawn) [CBK076059] belongs 96.7%; to `O=C(O)CN1C(=O)CC2(C1=O)C(=O)N(Cc1ccccc1)c1ccccc12` (stereo not drawn) [CBK076093], 116%; to `Cc1nc(CN2C(=O)CC3(C2=O)C(=O)N(CCCCOc2ccccc2)c2ccccc23)cs1` (stereo not drawn) [CBK076103], 102%.
Regarding `Cc1ccc2c(c1)C1(CC(=O)N(CC(=O)O)C1=O)C(=O)N2C` (stereo not drawn) [CBK076104], the viability at 28.5 h, 10 µM was determined as 96.8%.
To `CN1C(=O)CC2(C1=O)C(=O)N(CC(=O)O)c1ccc(Cl)cc12` (stereo not drawn) [CBK076107] belongs 98.8%.
To `COc1ccc2c(c1)C1(CC(=O)N(C)C1=O)C(=O)N2CCCC(=O)O` (stereo not drawn) [CBK076109] belongs 77.3%.
On to `COc1ccc2c(c1)C1(CC(=O)N(C)C1=O)C(=O)N2CC(=O)O` (stereo not drawn) [CBK076118], for which the viability at 28.5 h, 10 µM is 100%.
For `O=C(O)CN1C(=O)C2(CC(=O)N(Cc3ccccc3)C2=O)c2cc(F)ccc21` (stereo not drawn) [CBK076173], the viability at 28.5 h, 10 µM turned out to be 99.3%.
With `CCN1CCCC1CNC(=O)c1ccc(-c2ccco2)nc1N1CCN(C(=O)c2ccco2)CC1` (stereo not drawn) [CBK076206], the viability at 28.5 h, 10 µM was determined as 90.4%.
As to `COc1ccc(OCCNC(=O)c2cc(Br)cnc2N2CCOCC2)cc1` [CBK076214], the viability at 28.5 h, 10 µM is 88%.
The same measure for `O=C(NCCc1c[nH]c2ccccc12)c1ccc(-c2ccco2)nc1N1CCN(C(=O)c2ccco2)CC1` [CBK076217]: 95.4%.
To `O=C(NCc1nc2ccccc2[nH]1)c1cc(Br)cnc1NCCOc1ccccc1` [CBK076220] belongs 104%; to `CN1CCN(C(=O)c2cc(Br)cnc2NCCOc2ccccc2)CC1` [CBK076231], 92%; to `O=C(NCc1cccnc1)c1cc(Br)cnc1NCCOc1ccccc1` [CBK076265], 99.2%.
The same measure for `O=C(NCc1nc2ccccc2[nH]1)c1cc(Br)cnc1N1CCOCC1` [CBK076278]: 96.7%; for `O=C(NCC1COc2ccccc2O1)c1cc(-c2ccc(Cl)cc2)cnc1N1CCOCC1` (stereo not drawn) [CBK076286]: 94.9%.
As to `CN(C)C(=O)c1cc(Br)cnc1NCc1ccc2c(c1)OCO2` [CBK076293], the viability at 28.5 h, 10 µM amounted to 110%.
As to `COc1ccc(-c2cnc(NCC3CC3)c(C(=O)N(C)CCN(C)C)c2)cc1` [CBK076338], the viability at 28.5 h, 10 µM worked out at 90.5%.
In the case of `C=C(C)CNC(=O)c1cc(-c2ccc(OC)cc2)cnc1NCC1CC1` [CBK076339], the viability at 28.5 h, 10 µM was found to be 97.7%.
The same measure for `COc1ccc(OCCNC(=O)c2cc(-c3cccnc3)cnc2N2CCOCC2)cc1` [CBK076341]: 96.2%.
To `CN1CCN(C(=O)c2cc(Br)cnc2NCc2cccnc2)CC1` [CBK076347] belongs 87.3%.
The same measure for `Cc1ccc(C(=O)N(C)CCN(C)C)c(NCc2cccnc2)n1` [CBK076348]: 91.5%; for `O=C(NCc1ccco1)c1cc(-c2ccc(Cl)cc2)cnc1N1CCOCC1` [CBK076352]: 87%.
In the case of `Cc1cc(NC(=O)c2cc(Br)cnc2NCc2cccnc2)n(C)n1` [CBK076358], the viability at 28.5 h, 10 µM worked out at 90.7%.
With `CNC(=O)c1cccc(NC(=O)c2cc(Br)cnc2NCC2CC2)c1` [CBK076380], the viability at 28.5 h, 10 µM was determined as 95.5%.
The same measure for `COc1ccc(OCCNC(=O)c2ccc(C)nc2NCCCn2ccnc2)cc1` [CBK076385]: 117%.
As to `C=C(C)CNC(=O)c1ccc(C)nc1N1CCOCC1` [CBK076389], the viability at 28.5 h, 10 µM is 93.5%.
To `Cc1ccc(C(=O)NCc2cccnc2)c(N2CCOCC2)n1` [CBK076400] belongs 112%; to `O=C(Nc1ccc(C(F)(F)F)cc1)c1cc(Br)cnc1NCc1cccnc1` [CBK076419], 111%; to `O=C(NCCc1ccccc1)c1cc(Br)cnc1NCCCn1ccnc1` [CBK076421], 103%.
To `C=CCNC(=O)c1cc(Br)cnc1NCC1CC1` [CBK076424] belongs 102%; to `COc1ccc(S(=O)(=O)NCCNC(=O)c2cc(-c3cccc(S(C)(=O)=O)c3)cnc2NCC2CC2)cc1` [CBK076425], 94.6%; to `CC(=O)NCCNC(=O)c1ccc(C)nc1N1CCOCC1` [CBK076453], 98.6%.
For the compound `O=C(NC1CCS(=O)(=O)C1)c1cc(-c2cccnc2)cnc1NCc1ccc2c(c1)OCO2` (stereo not drawn) [CBK076455], the viability at 28.5 h, 10 µM was found to be 89.2%.
Turning to `O=C(NNCc1ccccc1)c1cc(Br)cnc1N1CCN(C(=O)c2ccco2)CC1` [CBK076460], the viability at 28.5 h, 10 µM came to 101%.
To `COCCNC(=O)c1cc(-c2cccc(C(=O)N(C)C)c2)cnc1N1CCOCC1` [CBK076464] belongs 97.7%; to `COc1cccc(-c2ccc(C(=O)NCCNC(C)=O)c(N3CCOCC3)n2)c1` [CBK076465], 86.3%.
To `CN(C)CCN(C)C(=O)c1cc(Br)cnc1N(C)S(C)(=O)=O` [CBK076476] belongs 96.2%.
The same measure for `CSc1ccccc1CNC(=O)c1cc(Br)cnc1N(C)C(C)=O` [CBK076478]: 106%; for `COCCNC(=O)c1cc(-c2ccccc2)cnc1N(C)S(C)(=O)=O` [CBK076484]: 85.8%; for `CS(=O)(=O)Nc1ncc(Br)cc1C(=O)Nc1ccc(C(F)(F)F)cc1` [CBK076485]: 96.7%.
Take `CN(C)C(=O)c1cc(-c2ccco2)cnc1NS(C)(=O)=O` [CBK076490]: the viability at 28.5 h, 10 µM turned out to be 116%.
The same measure for `CCN1CCCC1CNC(=O)c1ccc(-c2ccc(OC)cc2)nc1N(C)C(C)=O` (stereo not drawn) [CBK076491]: 98.3%; for `O=C(NC1CCCCC1)c1cc(Br)cnc1NCCCn1ccnc1` [CBK076494]: 99.7%.
To `C=C(C)CNC(=O)c1cc(Br)cnc1N(C)S(C)(=O)=O` [CBK076498] belongs 94.6%; to `COc1ccc(-c2ccc(C(=O)N(C)C)c(N(C)C(C)=O)n2)cc1` [CBK076500], 99.1%.
The same measure for `CN(C)c1ncc(Br)cc1C(=O)NCCNS(=O)(=O)c1ccccc1` [CBK076504]: 89.4%.
As for `CN(c1ncc(-c2ccccc2)cc1C(=O)NCc1ccco1)S(C)(=O)=O` [CBK076506], the viability at 28.5 h, 10 µM turned out to be 86.3%.
To `CN(c1ncc(-c2ccccc2)cc1C(=O)NCc1cccnc1)S(C)(=O)=O` [CBK076507] belongs 98.9%; to `COc1cccc(-c2ccc(C(=O)Nc3ccc4c(c3)OCO4)c(N3CCOCC3)n2)c1` [CBK076509], 93.5%; to `CN(C)CCN(C)C(=O)c1cc(Br)cnc1N1CCN(C(=O)c2ccco2)CC1` [CBK076514], 93.8%.
To `CC(=O)c1ccccc1-c1cnc(N(C)S(C)(=O)=O)c(C(=O)NCCc2ccccc2)c1` [CBK076516] belongs 93.9%; to `Cc1ccc(C(=O)NCC2COc3ccccc3O2)c(N2CCOCC2)n1` (stereo not drawn) [CBK076519], 106%.
`CCN1CCCC1CNC(=O)c1cc(Br)cnc1N(C)S(C)(=O)=O` (stereo not drawn) [CBK076520]: the viability at 28.5 h, 10 µM came out at 93.5%.
Regarding `CC(=O)N(C)c1ncc(Br)cc1C(=O)NCc1nc2ccccc2[nH]1` [CBK076522], the viability at 28.5 h, 10 µM amounted to 95.9%.
To `COc1ccc(-c2cnc(NS(C)(=O)=O)c(C(=O)Nc3cc(C)nn3C)c2)cc1` [CBK076528] belongs 88.2%; to `CSc1ccccc1CNC(=O)c1cc(Br)cnc1N(C)S(C)(=O)=O` [CBK076529], 96.7%.
The same measure for `CN(c1ncc(Br)cc1C(=O)NC1CCCCC1)S(C)(=O)=O` [CBK076531]: 111%.
To `CN(c1ncc(Br)cc1C(=O)Nc1ccc(C(F)(F)F)cc1)S(C)(=O)=O` [CBK076542] belongs 93.3%.

The values above are taken from publication PMC12040169 (PLOS Biology, 2025).
